Data set [1] deals with fully amygdala kindled rats. To be noted: rat, in vivo.
For a further data set, the system named is fully-kindled rats. The note with it: rat, in vivo.
For data set [2], the system named is audiogenic seizure susceptible mice. The note with it: mouse, in vivo; cited from earlier work.
Data set [3] deals with amygdala and surrounding brain structures. The note with it: rat, in vivo.
Another data set relates to Non-kindled rats. The note with it: rat, in vivo.

“Also recorded” adds a separate entry of the source.

As for `NC(=O)N1c2ccccc2C=Cc2ccccc21` [carbamazepine], in data set [1], the “increase in mean AD threshold and decreases in mean seizure stage and mean behavioral seizure duration vs vehicle (p value)” value is under 0.05; the “kindling measures vs vehicle at later time points” value is “no differences”; the “time course of activity after CED infusion (in words)” value was “apparent at 20 min but not at 24 h; also recorded: active at 20 min but not at 24 h”. Also, the “adverse neurological or behavioral effects” value with fully-kindled rats is “not associated with any observable adverse neurological or behavioral effects”.

Consider ω-conotoxin GVIA [ω-CTX-G], for which, in data set [2], the protection against seizures result was “protected against seizures”. Moreover, in data set [1], the “time of maximum increase in AD threshold / maximum protective effect after CED infusion” value is listed as 48 h. Further, the “tissue damage after repeated CED infusions (cresyl violet and silver staining)” value in data set [3] is “minimal damage”. In addition, in the data set with fully-kindled rats, the body weight increase is 0.1±2.1%, the resolution of tremor result is given as “resolved by the third day after the infusion” and the “tremor after infusions of lower doses” value is “No tremor was observed”. For the same compound, in the data set on Non-kindled rats, the “behavioral effects of the toxin infusion (in words)” value is “no or only mild behavioral effects”, the body weight gain is 3.0±1.8%, the body weight loss was 10.3±0.9% and the “cumulative dose corresponding to the threshold for locomotor arrest” value stood at 0.013 ± 0.001 nmol. In the data set on Non-kindled rats, the “cumulative dose corresponding to the threshold for whole body tremors” value was 0.027 ± 0.002 nmol, the “onset of locomotor activity arrest following the infusion” value was 5.0 ± 0.4 min, the “onset of rhythmic whole body tremors following the infusion” value amounted to 10.8 ± 0.9 min and the persistence of tremors worked out at 24 h. The “rats exhibiting locomotor activity arrest followed by whole body tremors” value with Non-kindled rats is “All six”.

Values taken from US20090209937A1 (priority 2007, published 2009).
